For this assay, the system named is HCV replicon (NS3-NS5B regions of HCV type 1b) in Huh-7 luc/neo cells. Briefly: HCV replicon assay, stable replicon cell reporter assay (Huh-Luc, luciferase). The class given is cell-based. The settings on record: incubation of three days, luciferase activity. The text has this:
The compounds of the present invention were examined for activity in the inhibition of HCV RNA replication in a cellular assay. […] The cellular assay was based on a bicistronic expression construct, as described by Lohmann et al. (1999) Science vol. 285 pp. 110-113 with modifications described by Krieger et al. (2001) Journal of Virology 75: 4614-4624, in a multi-target screening strategy. In essence, the method is as follows.
The assay utilized the stably transfected cell line Huh-7 luc/neo (hereafter referred to as Huh-Luc; kindly provided by Dr Ralf Bartenschlager, Reblikon GmBh, Germany). This cell line harbors an RNA encoding a bicistronic expression construct comprising the wild type NS3-NS5B regions of HCV type 1b translated from an Internal Ribosome Entry Site (IRES) from encephalomyocarditis virus (EMCV), preceded by a reporter portion (FfL-luciferase), and a selectable marker portion (neo^R, neomycine phosphotransferase). The construct was bordered by 5′ and 3′ NTRs (non-translated regions) from HCV type 1b. Continued culture of the replicon cells in the presence of G418 (neo^R) is dependent on the replication of the HCV RNA. The stably transfected replicon cells that express HCV RNA, which replicates autonomously and to high levels, encoding inter alia luciferase, were used for screening the antiviral compounds.
The replicon cells were plated in 384 well plates in the presence of the test and control compounds which were added in various concentrations. Following an incubation of three days, HCV replication was measured by assaying luciferase activity (using standard luciferase assay substrates and reagents and a Perkin Elmer ViewLux™ ultraHTS microplate imager). Replicon cells in the control cultures have high luciferase expression in the absence of any inhibitor. The inhibitory activity of the compound on luciferase activity was monitored on the Huh-Luc cells, enabling a dose-response curve for each test compound. EC50 values were then calculated, which value represents the amount of the compound required to decrease by 50% the level of detected luciferase activity, or more specifically, the ability of the genetically linked HCV replicon RNA to replicate (Table 1).
(In general: Replicon systems follow genome replication, usually without infectious particles.)

Counter-ions that a name gives are not always drawn.

As usually defined, the EC50 is the concentration that produces a half-maximal response. Take `CC(C)CN(CC(O)C(Cc1ccccc1)NC(=O)OCc1cncs1)S(=O)(=O)c1ccc2nc(NC(=O)C3CCC(=O)N3)oc2c1` (stereo not shown) [Compound 24, [1-Benzyl-2-hydroxy-3-(isobutyl-{2-[(5-oxo-pyrrolidine-2-carbonyl)-amino]-benzooxazole-6-sulfonyl}-amino)-propyl]-carbamic acid thiazol-5-yl methyl ester]: the EC50 fell in the range of 2 to 10 µM.

Consider `CC(C)CN(CC(O)C(Cc1ccccc1)NC(=O)OCc1cncs1)S(=O)(=O)c1ccc2nc(NC(=O)c3ccoc3)oc2c1` (stereo not shown) [Compound 25, [1-Benzyl-3-({2-[(furan-3-carbonyl)-amino]-benzooxazole-6-sulfonyl}-isobutyl-amino)-2-hydroxy-propyl]-carbamic acid thiazol-5-ylmethyl ester], for which the EC50 (Hepatitis C virus, Huh-7, 72 h) was under 2 µM.

In turn, `CC(C)CN(CC(O)C(Cc1ccccc1)NC(=O)OCc1cncs1)S(=O)(=O)c1ccc2nc(NC(=O)C3CCN(C)CC3)oc2c1` (stereo not shown) [Compound 26, [1-Benzyl-2-hydroxy-3-(isobutyl-{2-[(1-methyl-piperidine-4-carbonyl)-amino]-benzooxazole-6-sulfonyl}-amino)-propyl]-carbamic acid thiazol-5-ylmethyl ester] had an EC50 (Hepatitis C virus, Huh-7, 72 h) of 10 to 32 µM.

`CC(C)CN(CC(O)C(Cc1ccccc1)NC(=O)OCc1cncs1)S(=O)(=O)c1ccc2nc(NC(=O)c3ccccn3)oc2c1` (stereo not shown) [Compound 27, [1-Benzyl-2-hydroxy-3-(isobutyl-{2-[(pyridine-2-carbonyl)-amino]-benzooxazole-6-sulfonyl}-amino)-propyl]-carbamic acid thiazol-5-ylmethyl ester] registered an EC50 (Hepatitis C virus, Huh-7, 72 h) of 2 to 10 µM.

The molecule `CC(C)CN(CC(O)C(Cc1ccccc1)NC(=O)OCc1cnc(Cl)s1)S(=O)(=O)c1ccc2nc(N)oc2c1` (stereo not shown) [Compound 28, {3-[(2-Amino-benzooxazole-6-sulfonyl)-isobutyl-amino]-1-benzyl-2-hydroxy-propyl}-carbamic acid 2-chloro-thiazol-5-ylmethyl ester] came in with an EC50 (Hepatitis C virus, Huh-7, 72 h) of 2 to 10 µM.

In the case of `CC(C)CN(CC(O)C(Cc1ccccc1)NC(=O)OCc1cncs1)S(=O)(=O)c1ccc2nc(NC(=O)CN(C)C)oc2c1` (stereo not shown) [Compound 29, (1-Benzyl-3-{[2-(2-dimethylamino-acetylamino)-benzo-oxazole-6-sulfonyl]-isobutyl-amino}-2-hydroxy-propyl)-carbamic acid thiazol-5-ylmethyl ester], the EC50 (Hepatitis C virus, Huh-7, 72 h) was 2 to 10 µM.

As to `CC(C)CN(CC(O)C(Cc1ccccc1)NC(=O)OCc1cncs1)S(=O)(=O)c1ccc2nc(N3CCNCC3)oc2c1` (stereo not shown) [Compound 30, {1-Benzyl-2-hydroxy-3-[isobutyl-(2-piperazin-1-yl-benzo-oxazole-6-sulfonyl)-amino]-propyl}-carbamic acid thiazol-5-ylmethyl ester], where the note is “Hepatitis C virus, Huh-7, 72 h”, the EC50 lay within 2 to 10 µM.

`CC(C)CN(CC(O)C(Cc1ccccc1)NC(=O)OCc1cncs1)S(=O)(=O)c1ccc2nc(N3CCCCC3)oc2c1` (stereo not shown) [Compound 31, {1-Benzyl-2-hydroxy-3-[isobutyl-(2-piperidin-1-yl-benzo-oxazole-6-sulfonyl)-amino]-propyl}-carbamic acid thiazol-5-ylmethyl ester] registered an EC50 (Hepatitis C virus, Huh-7, 72 h) of 2 to 10 µM.

`CC(C)CN(CC(O)C(Cc1ccccc1)NC(=O)OCc1cncs1)S(=O)(=O)c1ccc2nc(NC(=O)CN(C)CCN3CCCC3)oc2c1` (stereo not shown) [Compound 32, {1-Benzyl-2-hydroxy-3-[isobutyl-(2-{2-[methyl-(2-pyrrolidin-1-yl-ethyl)-amino]-acetylamino}-benzooxazole-6-sulfonyl)-amino]-propyl}-carbamic acid thiazol-5-ylmethyl ester]: the EC50 (Hepatitis C virus, Huh-7, 72 h) is 10 to 32 µM.

Consider `CC(C)CN(CC(O)C(Cc1ccccc1)NC(=O)OCc1cncs1)S(=O)(=O)c1ccc2nc(N(C)C)oc2c1` (stereo not shown) [Compound 33, {1-Benzyl-3-[(2-dimethylamino-benzooxazole-6-sulfonyl)-isobutyl-amino]-2-hydroxy-propyl}-carbamic acid thiazol-5-ylmethyl ester], for which the EC50 (Hepatitis C virus, Huh-7, 72 h) lay within 10 to 32 µM.

In the case of `CC(C)CN(CC(O)C(Cc1ccccc1)NC(=O)OCc1cnco1)S(=O)(=O)c1ccc2nc(N)oc2c1` (stereo not shown) [Compound 34, {3-[(2-Amino-benzooxazole-6-sulfonyl)-isobutyl-amino]-1-benzyl-2-hydroxy-propyl}-carbamic acid oxazol-5-ylmethyl ester], the EC50 (Hepatitis C virus, Huh-7, 72 h) lay in the range of 10 to 32 µM.

Under “Hepatitis C virus, Huh-7, 72 h”, `CC(C)CN(CC(O)C(Cc1ccccc1)NC(=O)OCc1cncs1)S(=O)(=O)c1ccc2nc(NC(=O)c3ccncc3)oc2c1` (stereo not shown) [Compound 35, [1-Benzyl-2-hydroxy-3-(isobutyl-{2-[(pyridine-4-carbonyl)-amino]-benzooxazole-6-sulfonyl}-amino)-propyl]-carbamic acid thiazol-5-ylmethyl ester] had an EC50 of under 2 µM.

Molecule `CC(C)CN(CC(O)C(Cc1ccccc1)NC(=O)OCc1cncs1)S(=O)(=O)c1ccc2nc(N(C)C(=O)c3ccccn3)oc2c1` (stereo not shown) [Compound 36, [1-Benzyl-2-hydroxy-3-(isobutyl-{2-[methyl-(pyridine-2-carbonyl)-amino]-benzooxazole-6-sulfonyl}-amino)-propyl]-carbamic acid thiazol-5-ylmethyl ester] returned an EC50 (Hepatitis C virus, Huh-7, 72 h) of 10 to 32 µM.

Take `CC(C)CN(CC(O)C(Cc1ccccc1)NC(=O)OCc1cncs1)S(=O)(=O)c1ccc2nc(N(C)C(=O)C3CCCN(C)C3)oc2c1` (stereo not shown) [Compound 37, [1-Benzyl-2-hydroxy-3-(isobutyl-{2-[methyl-(1-methyl-piperidine-3-carbonyl)-amino]-benzooxazole-6-sulfonyl}-amino)-propyl]-carbamic acid thiazol-5-ylmethyl ester]: where the note is “Hepatitis C virus, Huh-7, 72 h”, the EC50 lay in the range of 10 to 32 µM.

Where the note is “Hepatitis C virus, Huh-7, 72 h”, `CC(C)CN(CC(O)C(Cc1ccccc1)NC(=O)OCc1cncs1)S(=O)(=O)c1ccc2nc(N(C)C(=O)C3CCN(C)CC3)oc2c1` (stereo not shown) [Compound 38, [1-Benzyl-2-hydroxy-3-(isobutyl-{2-[methyl-(1-methyl-piperidine-4-carbonyl)-amino]-benzooxazole-6-sulfonyl}-amino)-propyl]-carbamic acid thiazol-5-ylmethyl ester] returned an EC50 of 10 to 32 µM.

Turning to `CC(C)CN(CC(O)C(Cc1ccccc1)NC(=O)OCc1cncs1)S(=O)(=O)c1ccc2nc(N(C)C(=O)c3ccnc(Cl)c3)oc2c1` (stereo not shown) [Compound 39, [1-Benzyl-3-({2-[(2-chloro-pyridine-4-carbonyl)-methyl-amino]-benzooxazole-6-sulfonyl}-isobutyl-amino)-2-hydroxy-propyl]-carbamic acid thiazol-5-ylmethyl ester], the EC50 (Hepatitis C virus, Huh-7, 72 h) is 10 to 32 µM.

The molecule `CC(C)CN(CC(O)C(Cc1ccccc1)NC(=O)OCc1cncs1)S(=O)(=O)c1ccc2nc(N(C)C(=O)C3CCCN3C)oc2c1` (stereo not shown) [Compound 40, [1-Benzyl-2-hydroxy-3-(isobutyl-{2-[methyl-(1-methyl-pyrrolidine-2-carbonyl)-amino]-benzooxazole-6-sulfonyl}-amino)-propyl]-carbamic acid thiazol-5-ylmethyl ester trifluoroacetate salt] displayed an EC50 (Hepatitis C virus, Huh-7, 72 h) of 10 to 32 µM.

On to `CC(C)CN(CC(O)C(Cc1ccccc1)NC(=O)OCc1cncs1)S(=O)(=O)c1ccc2ncn(CCc3ccccc3)c2c1` (stereo not shown) [Compound 41, {1-Benzyl-2-hydroxy-3-[isobutyl-(3-phenethyl-3H-benzo-imidazole-5-sulfonyl)-amino]-propyl}-carbamic acid thiazol-5-ylmethyl ester], for which, where the note is “Hepatitis C virus, Huh-7, 72 h”, the EC50 lay within 10 to 32 µM.

Consider `CC(C)CN(CC(O)C(Cc1ccccc1)NC(=O)OCc1cncs1)S(=O)(=O)c1ccc2ncn(CC(C)C)c2c1` (stereo not shown) [Compound 42, {1-Benzyl-2-hydroxy-3-[isobutyl-(3-isobutyl-3H-benzo-imidazole-5-sulfonyl)-amino]-propyl}-carbamic acid thiazol-5-ylmethyl ester], for which the EC50 (Hepatitis C virus, Huh-7, 72 h) lay within 2 to 10 µM.

In turn, `CC(C)CN(CC(O)C(Cc1ccccc1)NC(=O)OCc1cncs1)S(=O)(=O)c1ccc(-c2csc(Nc3ccncc3)n2)cc1` (stereo not shown) [Compound 43, [1-Benzyl-2-hydroxy-3-(isobutyl-{4-[2-(pyridin-4-ylamino)-thiazol-4-yl]-benzenesulfonyl}-amino)-propyl]-carbamic acid thiazol-5-ylmethyl ester] registered an EC50 (Hepatitis C virus, Huh-7, 72 h) of under 2 µM.

Regarding `Cc1nc(-c2ccc(S(=O)(=O)N(CC(C)C)CC(O)C(Cc3ccccc3)NC(=O)OCc3cncs3)cc2)co1` (stereo not shown) [Compound 44, (1-Benzyl-2-hydroxy-3-{isobutyl-[4-(2-methyl-oxazol-4-yl)-benzenesulfonyl]-amino}-propyl)-carbamic acid thiazol-5-ylmethyl ester], for the setting “Hepatitis C virus, Huh-7, 72 h”, the 50% effective concentration (EC50) was in the range of 10 to 32 µM.

On to `CC(C)CN(CC(O)C(Cc1ccccc1)NC(=O)OCc1cncs1)S(=O)(=O)c1ccc2nc(N)oc2c1` (stereo not shown) [Compound 45, {3-[(2-Amino-benzooxazole-6-sulfonyl)-isobutyl-amino]-1-benzyl-2-hydroxy-propyl}-carbamic acid thiazol-5-ylmethyl ester], for which the EC50 (Hepatitis C virus, Huh-7, 72 h) lay within 2 to 10 µM.
